Reference: patent US12630594B2, “Allergy antigen and epitope for same” (HOYU CO., LTD., priority 2017, dated 2026)

What follows are substances tested on IgE antibodies from patients (assay: Epitope mapping (3): alanine scanning). Details: positions numbered within the region important for binding; no influence on IgE binding when substituted by alanine.
Parameters: species or system human
Method: From the amino acid sequences identified above in (A), a library of peptide fragments in which N-terminal amino acids were substituted one by one by alanine according to a technique called alanine scanning (Non Patent Literature 5) was prepared by the same technique as described above. The presence or absence of binding of an IgE antibody present in the serum of a patient and a non-fish-allergic subject to each peptide fragment was measured by the same technique as described above. Amino acids at positions where the binding activity against IgE antibodies from patients were lost or decreased by the substitution by alanine while binding activity against IgE antibodies from non-fish-allergic subjects arose were confirmed as amino acids important for exertion of original antigenicity, or amino acids influencing exertion of original antigenicity.
Chemiluminescence intensity in images obtained by measurement was converted into a numeric value in the same manner as in (A) using ImageQuant TL (GE Healthcare). When values obtained using the sequences (SEQ ID NOs: 150-204) that were of the peptides confirmed to bind to an IgE antibody in a patient specific manner from the images obtained from results about the serum of 5 patients and served as the basis of overlapping were defined as 100%, it was determined that: a peptide having a value of less than 20% had no binding activity against IgE antibodies; a peptide having a value of 20% or more and less than 50% had binding activity, albeit poor, against IgE antibodies; a peptide having a value of 50% or more and less than 70% had binding activity, albeit somewhat poor, against IgE antibodies; a peptide having a value of 70% or more and less than 90% had equivalent binding activity against IgE antibodies; and a peptide having a value of 90% or more had almost equivalent or good binding activity against IgE antibodies and was thus a peptide had remaining binding activity against IgE antibodies.
By this analysis, common sequences important for exertion of original antigenicity were found in regions important for binding to IgE antibodies from patients, in the sequences serving as the basis of overlapping.

Substance	Non-binding-influencing amino acid in region important for binding
6 (LDNRLYYMVAEHDSS; epitope) [compound 6]	8
37 (GGYIQAVLDRNLCEN; epitope) [compound 37]	3
49 (VLAGEPVGSRSKVTV; epitope) [compound 49]	6
55 (PASYDAIKKVVKAAA; epitope) [compound 55]	5

Each substance was assayed on IgE antibody present in the serum of a fish-allergic patient (assay: Epitope mapping (1): peptide array of overlapping 15-amino-acid peptides). Details: average of 5 patients / average of 4 non-fish-allergic subjects at least 1.5, Mann-Whitney U test.
Assay type: binding, human
Method: Epitope mapping was carried out using a library of overlapping peptides (length: 15 amino acids) corresponding to the amino acid sequences identified as allergy components of fish and the amino acid sequences of known fish allergy antigens aldolase, β-enolase, and glyceraldehyde-3-phosphate dehydrogenase (Non Patent Literature 2-4). Specifically, the library of overlapping peptides was prepared on the basis of the amino acid sequences of SEQ ID NO: 2 for alpha-actinin-3, SEQ ID NO: 5 for EEF1A2 binding protein-like, SEQ ID NO: 10 for alpha-1,4-glucan phosphorylase, SEQ ID NO: 19 for elongation factor 2, SEQ ID NO: 26 for heat shock cognate 70 kDa protein, SEQ ID NO: 33 for serotransferrin, SEQ ID NO: 43 for myosin binding protein H-like, SEQ ID NO: 56 for desmin (fragment), SEQ ID NO: 61 for capping protein (actin filament) muscle Z-line beta, SEQ ID NO: 70 for myosin heavy chain, fast skeletal muscle-like, SEQ ID NO: 110 for glycogen phosphorylase, muscle form-like, SEQ ID NO: 121 for myosin-binding protein C, fast-type-like, SEQ ID NO: 138 for ATP synthase subunit beta, mitochondrial, SEQ ID NO: 144 for L-lactate dehydrogenase A chain-like, SEQ ID NO: 445 for aldolase, SEQ ID NO: 446 for β-enolase, and SEQ ID NO: 447 for glyceraldehyde-3-phosphate dehydrogenase.
The peptides to be synthesized were shifted by 10 amino acids.
For preparation of peptide arrays, the Intavis CelluSpots™ technique was used. Specifically, the peptide arrays were prepared by the following procedure: (1) synthesizing peptides of interest on amino-modified cellulose disks using an automated chemical synthesis apparatus (Intavis MultiPep RS), (2) dissolving the amino-modified cellulose disks to obtain a cellulose-bound peptide solution, and (3) spotting the cellulose-bound peptides onto coated glass slides. The details of each procedure are as described below.
The presence or absence of binding, to each peptide fragment, of an IgE antibody present in the serum of a fish-allergic patient was measured through antigen-antibody reaction using the peptide arrays. The measurement was carried out according to the following procedure. • (1) The peptides were shaken at room temperature for 1 hour in PBST. • (2) The peptide arrays were shaken at overnight at room temperature in 5% serum/PBST. • (3) The peptide arrays were washed with a PBST solution (a PBS buffer containing 0.1% Tween 20 nonionic surfactant) for 5 minutes (×3). • (4) Anti-human IgE antibody-HRP(1:5,000, PBST) was added thereto, and the peptide arrays were shaken at room temperature for 1 hour. • (5) The peptide arrays were washed with a PBST solution for 5 minutes (×3). • (6) Pierce ECL Plus Western Blotting Substrate (produced by Thermo Fisher Scientific) was added thereto, and the peptide arrays were shaken at room temperature for 5 minutes. • (7) The chemiluminescence of the peptides treated as described above in (1) to • (6) was measured using Amersham Imager 600.
Chemiluminescence intensity in images obtained by the measurement described above in (7) was converted into a numeric value using ImageQuant TL (GE Healthcare). The average value of numeric values determined from images obtained from results about the serum of 5 patients was divided by the average value of numeric values determined from images obtained from results about the serum of 4 non-fish-allergic subjects. It was determined that a peptide having a calculated value (average value of the patient group/average value of the non-fish-allergic subject group) of at least 1.5 and a significant difference of […] in the Mann-Whitney U test was a peptide bound to an IgE antibody in a patient-specific manner.

IgE antibody binding in a patient-specific manner	Substance
bind in a patient-specific manner	6 (LDNRLYYMVAEHDSS; epitope) [compound 6]
bind in a patient-specific manner	8 (DRFKVFADYEAYIKS; epitope) [compound 8]
bind in a patient-specific manner	37 (GGYIQAVLDRNLCEN; epitope) [compound 37]
bind in a patient-specific manner	49 (VLAGEPVGSRSKVTV; epitope) [compound 49]
bind in a patient-specific manner	50 (SYGRALQASALKAWG; epitope) [compound 50]
bind in a patient-specific manner	54 (YMVYMFKYDSTHGRF; epitope) [compound 54]
bind in a patient-specific manner	55 (PASYDAIKKVVKAAA; epitope) [compound 55]

The substances below were run on IgE antibodies from patients (assay: Epitope mapping (2): overlapping 10-amino-acid peptide fragments shifted by one amino acid). Details: positions numbered within the 15-amino-acid epitope; serum of 5 patients.
Assay type: binding, human
From the text: On the basis of the sequences (SEQ ID NOs: 150-154 for alpha-actinin-3, SEQ ID NO: 155 for EEF1A2 binding protein-like, SEQ ID NOs: 156 and 157 for alpha-1,4-glucan phosphorylase, SEQ ID NOs: 158 and 159 for elongation factor 2, SEQ ID NOs: 160-162 for heat shock cognate 70 kDa protein, SEQ ID NOs: 163-167 for serotransferrin, SEQ ID NOs: 168-171 for myosin binding protein H-like, SEQ ID NOs: 172-174 for desmin (fragment), SEQ ID NOs: 175-178 for capping protein (actin filament) muscle Z-line beta, SEQ ID NOs: 179-185 for myosin heavy chain, fast skeletal muscle-like, SEQ ID NO: 186 for glycogen phosphorylase, muscle form-like, SEQ ID NOs: 187-196 for myosin-binding protein C, fast-type-like, SEQ ID NO: 197 for ATP synthase subunit beta, mitochondrial, SEQ ID NO: 198 for L-lactate dehydrogenase A chain-like, SEQ ID NO: 199 for aldolase, SEQ ID NOs: 200-202 for β-enolase, and SEQ ID NOs: 203 and 204 for glyceraldehyde-3-phosphate dehydrogenase) of the peptides bound to an IgE antibody in serum in a patient-specific manner as described above in (A), a library of overlapping peptide fragments (length: 10 amino acids) was prepared using the sequences of the peptides and sequences in which sequences were added so as to flank each peptide in the amino acid sequences of allergen components (SEQ ID NO: 2 for alpha-actinin-3, SEQ ID NO: 5 for EEF1A2 binding protein-like, SEQ ID NO: 10 for alpha-1,4-glucan phosphorylase, SEQ ID NO: 19 for elongation factor 2, SEQ ID NO: 26 for heat shock cognate 70 kDa protein, SEQ ID NO: 33 for serotransferrin, SEQ ID NO: 43 for myosin binding protein H-like, SEQ ID NO: 56 for desmin (fragment), SEQ ID NO: 61 for capping protein (actin filament) muscle Z-line beta, SEQ ID NO: 70 for myosin heavy chain, fast skeletal muscle-like, SEQ ID NO: 110 for glycogen phosphorylase, muscle form-like, SEQ ID NO: 121 for myosin-binding protein C, fast-type-like, SEQ ID NO: 138 for ATP synthase subunit beta, mitochondrial, SEQ ID NO: 144 for L-lactate dehydrogenase A chain-like, SEQ ID NO: 445 for aldolase, SEQ ID NO: 446 for β-enolase, and SEQ ID NO: 447 for glyceraldehyde-3-phosphate dehydrogenase) comprising the sequences of the peptide. Epitope mapping was carried out using the library.
The peptides to be synthesized were shifted by one amino acid.
The library was prepared by the same procedure as described above in (A), and the presence or absence of binding of an IgE antibody present in the serum of a patient and a non-fish-allergic subject to each peptide fragment was measured by the same technique as described above. Amino acids at positions where the binding activity against IgE antibodies from patients were lost or decreased in the peptides shifted by one amino acid while binding activity against IgE antibodies from non-fish-allergic subjects arose were confirmed as amino acids adversely affecting the specificity of binding to IgE antibodies.
Chemiluminescence intensity in images obtained by measurement was converted into a numeric value in the same manner as in (A) using ImageQuant TL (GE Healthcare). […]

Positions of amino acids of region important for binding in epitope	Substance
1-11	6 (LDNRLYYMVAEHDSS; epitope) [compound 6]
2-9	8 (DRFKVFADYEAYIKS; epitope) [compound 8]
5-13	49 (VLAGEPVGSRSKVTV; epitope) [compound 49]
1-15	54 (YMVYMFKYDSTHGRF; epitope) [compound 54]

Each substance was assayed on IgE antibody in the serum of a fish-allergic patient (assay: Immunoblotting of two-dimensional electrophoresis patterns of fish meat proteins with patient serum). Details: proteins contained in salmon meat; serum from fish-allergic patient 3 (FIG. 1B right).
Assay type: binding, human
Method: Proteins contained in fish were analyzed by the aforementioned technique to identify antigens of an allergy to fish. To be specific, proteins were extracted from fish meat and subjected to two-dimensional electrophoresis under the conditions described below.
The electrophoresis in the first dimension was isoelectric focusing, which was performed using isoelectric focusing gels with a gel-strip length of 5 to 10 cm and a gel pH range of 3 to 10. The pH gradient of the gels in the direction of electrophoresis was as follows: with the total gel-strip length being taken as 1, the gel-strip length up to pH 5 was “a=0.15 to 0.3”, the gel-strip length from pH 5 to 7 was “b=0.4 to 0.7”, and the gel-strip length above pH 7 was “c=0.15 to 0.3”. More specifically, the isoelectric focusing was performed using the IPG gels, Immobiline Drystrip (pH3-10NL), produced by GE Healthcare Bio-Sciences Corporation (hereinafter abbreviated as “GE”). The electrophoresis system used was IPGphor produced by GE. The maximum current of the electrophoresis system was limited to 75 μA per gel strip. The voltage program adopted to perform the first-dimensional isoelectric focusing was as follows: (1) a constant voltage step was performed at a constant voltage of 300 V until the volt-hours reached 750 Vhr (the current variation width during electrophoresis for 30 minutes before the end of this step was 5 μA); (2) the voltage was increased gradually to 1000 V for 300 Vhr; (3) the voltage was further increased gradually to 5000 V for 4500 Vhr; and then (4) the voltage was held at a constant voltage of 5000 V until the total Vhr reached 12000.
The electrophoresis in the second dimension was SDS-PAGE, which was performed using polyacrylamide gels whose gel concentration at the distal end in the direction of electrophoresis was set to 3 to 6% and whose gel concentration at the proximal end was set to a higher value than that at the distal end. More specifically, the SDS-PAGE was performed using NuPAGE 4-12% Bris-Tris Gels (IPG well, Mini, 1 mm) produced by Life Technologies. The electrophoresis system used was XCell SureLock Mini-Cell produced by Life Technologies. The electrophoresis was run at a constant voltage of 200 V for about 45 minutes using an electrophoresis buffer composed of 50 mM MOPS, 50 mM Tris base, 0.1% (w/v) SDS and 1 mM EDTA.
Identification of antigens by immunoblotting was carried out by taking all the steps up to the step of “Second-dimensional SDS-PAGE” as described above in Example 1, followed by the steps of “Transfer to membrane”, “Immunoblotting” and “Analysis” as described below.
To be specific, proteins in the second-dimensional electrophoresis gels were transferred to a membrane (PVDF membrane) according to the following procedure. • (1) The PVDF membrane was immersed in 100% methanol followed by milliQ water, and then moved into the transfer buffer to hydrophilize the PVDF membrane. • (2) After sponge, filter paper, the second-dimensional electrophoresis gels treated by second-dimensional SDS-PAGE, the hydrophilized PVDF membrane, filter paper, and sponge were put in place in this order, the transfer system was energized at a constant voltage of 30 V for one hour. Immunoblotting
Immunoblotting of the membrane was carried out using, as a primary antibody, a serum sample from patient 1 with a fish allergy or a serum sample from a non-fish-allergic subject. This fish-allergic patient 1 was a patient diagnosed with immediate-type allergy to fish. […]

Substance	spots detected by immunoblotting, different from spots with serum of non-fish-allergic subject
ATP synthase subunit beta, mitochondrial [Spot 13]	newly detected

Same assay, conditions: spots in two-dimensional electrophoresis gel of proteins in fish; patients diagnosed with immediate-type allergy

specific binding to IgE antibodies from fish-allergic patients	Substance
specific binding to IgE antibodies	ATP synthase subunit beta, mitochondrial [Spot 13]
